Measurements reported in US5026848A, “Novel generation of heteroaryloxyalkyl heterocycles with antipicornaviruses activities” (Synphar Laboratories Incorporated, priority 1988, dated 1991).
In brackets after ≈: the same amount, converted by molar mass. Read-outs that look alike come from different tables or passages of the source.

What was measured:
[1] = tested on: Rhinovirus 2; experiment: Anti-rhinovirus activity, cytopathic effect inhibition / neutral red dye uptake, type 2; type: cell-based; settings: Enterovirus, WI-38; Table II; one of seven commonest serotypes; read-out: MIC 50 Rhinovirus Type 2
[2] = tested on: Rhinovirus 39; experiment: Anti-rhinovirus activity, cytopathic effect inhibition / neutral red dye uptake, type 39; type: cell-based; settings: Enterovirus, WI-38; Table I; WI38 cells, 33° C., 3-4 days; read-out: MIC50 Rhinovirus 39
[3] = tested on: Rhinovirus 1A; experiment: Anti-rhinovirus activity, cytopathic effect inhibition / neutral red dye uptake, type 1A; type: cell-based; settings: Enterovirus, WI-38
[4] = tested on: Rhinovirus 23; experiment: Anti-rhinovirus activity, cytopathic effect inhibition / neutral red dye uptake, type 23; type: cell-based; settings: Enterovirus, WI-38; Table II; read-out: MIC 50 Rhinovirus Type 23
[5] = tested on: Rhinovirus 1B; experiment: Anti-rhinovirus activity, cytopathic effect inhibition / neutral red dye uptake, type 1B; type: cell-based; settings: Enterovirus, WI-38; Table II; one of seven commonest serotypes; read-out: MIC 50 Rhinovirus Type 1B
[6] = tested on: Rhinovirus 29; experiment: Anti-rhinovirus activity, cytopathic effect inhibition / neutral red dye uptake, type 29; type: cell-based; settings: Enterovirus, WI-38; Table II; one of seven commonest serotypes; read-out: MIC 50 Rhinovirus Type 29
[7] = tested on: Rhinovirus 88; experiment: Anti-rhinovirus activity, cytopathic effect inhibition / neutral red dye uptake, type 88; type: cell-based; settings: Enterovirus, WI-38; Table II; read-out: MIC 50 Rhinovirus Type 88
[8] = tested on: Enterovirus serotypes; type: cell-based; settings: for All Enterovirus Serotypes (number of serotypes active / tested): Table III, numerator, denominator 7, but 5 for compound 8
[9] = tested on: Coxsacki-A21; experiment: Activity against other picornaviruses, Coxsacki-A21; type: cell-based; settings: Enterovirus, read-out: MIC 50 Cox. A21
[10] = tested on: Rhinovirus 4; experiment: Anti-rhinovirus activity, cytopathic effect inhibition / neutral red dye uptake, type 4; type: cell-based; settings: Enterovirus, WI-38; Table II; one of seven commonest serotypes; read-out: MIC 50 Rhinovirus Type 4
[11] = tested on: Coxsacki-B1; experiment: Activity against other picornaviruses, Coxsacki-B1; type: cell-based; settings: Enterovirus, read-out: MIC 50 Cox. B1
[12] = tested on: Rhinovirus 49; experiment: Anti-rhinovirus activity, cytopathic effect inhibition / neutral red dye uptake, type 49; type: cell-based; settings: Enterovirus, WI-38; Table II; read-out: MIC 50 Rhinovirus Type 49
[13] = tested on: Rhinovirus 44; experiment: Anti-rhinovirus activity, cytopathic effect inhibition / neutral red dye uptake, type 44; type: cell-based; settings: Enterovirus, WI-38; Table II; read-out: MIC 50 Rhinovirus Type 44
[14] = tested on: 20 serotypes of rhinovirus; experiment: Anti-rhinovirus activity against a panel of 20 serotypes; settings: Table II; numerator; denominator 20, but 10 for compound 8 and 6 for compound 30
[15] = tested on: Rhinovirus 36; experiment: Anti-rhinovirus activity, cytopathic effect inhibition / neutral red dye uptake, type 36; type: cell-based; settings: Enterovirus, WI-38; Table II; read-out: MIC 50 Rhinovirus Type 36
[16] = tested on: WI38 cells; experiment: Toxicity to WI38 cells (change in morphology in / growth inhibition of 25% of the cells); type: cell-based
[17] = tested on: Rhinovirus 86; experiment: Anti-rhinovirus activity, cytopathic effect inhibition / neutral red dye uptake, type 86; type: cell-based; settings: Enterovirus, WI-38; Table II; read-out: MIC 50 Rhinovirus Type 86
[18] = tested on: Echo-11; experiment: Activity against other picornaviruses, Echo-11; type: cell-based; settings: Enterovirus, read-out: MIC 50 Echo 11
[19] = tested on: Rhinovirus 17; experiment: Anti-rhinovirus activity, cytopathic effect inhibition / neutral red dye uptake, type 17; type: cell-based; settings: Enterovirus, WI-38; Table II; read-out: MIC 50 Rhinovirus Type 17
[20] = tested on: Rhinovirus 31; experiment: Anti-rhinovirus activity, cytopathic effect inhibition / neutral red dye uptake, type 31; type: cell-based; settings: Enterovirus, WI-38; Table II; one of seven commonest serotypes; read-out: MIC 50 Rhinovirus Type 31
[21] = tested on: Coxsacki-A9; experiment: Activity against other picornaviruses, Coxsacki-A9; type: cell-based; settings: Enterovirus, read-out: MIC 50 Cox. A9
[22] = tested on: Rhinovirus 30; experiment: Anti-rhinovirus activity, cytopathic effect inhibition / neutral red dye uptake, type 30; type: cell-based; settings: Enterovirus, WI-38; Table II; read-out: MIC 50 Rhinovirus Type 30
[23] = tested on: Rhinovirus 53; experiment: Anti-rhinovirus activity, cytopathic effect inhibition / neutral red dye uptake, type 53; type: cell-based; settings: Enterovirus, WI-38; Table II; read-out: MIC 50 Rhinovirus Type 53
[24] = tested on: Echo-7; experiment: Activity against other picornaviruses, Echo-7; type: cell-based; settings: Enterovirus, read-out: MIC 50 Echo 7
[25] = tested on: Polio 1; experiment: microbe, parasite or virus in culture; type: cell-based; settings: Enterovirus, read-out: MIC 50 Polio 1
[26] = tested on: Rhinovirus 56; experiment: Anti-rhinovirus activity, cytopathic effect inhibition / neutral red dye uptake, type 56; type: cell-based; settings: Enterovirus, WI-38; Table II; read-out: MIC 50 Rhinovirus Type 56
[27] = tested on: Rhinovirus 32; experiment: Anti-rhinovirus activity, cytopathic effect inhibition / neutral red dye uptake, type 32; type: cell-based; settings: Enterovirus, WI-38; Table II; read-out: MIC 50 Rhinovirus Type 32
[28] = tested on: Coxsacki-B4; experiment: Activity against other picornaviruses, Coxsacki-B4; type: cell-based; settings: Enterovirus, read-out: MIC 50 Cox. B4
[29] = tested on: Rhinovirus 63; experiment: Anti-rhinovirus activity, cytopathic effect inhibition / neutral red dye uptake, type 63; type: cell-based; settings: Enterovirus, WI-38; Table II; read-out: MIC 50 Rhinovirus Type 63
[30] = tested on: Rhinovirus 15; experiment: Anti-rhinovirus activity, cytopathic effect inhibition / neutral red dye uptake, type 15; type: cell-based; settings: Enterovirus, WI-38; Table II; one of seven commonest serotypes; read-out: MIC 50 Rhinovirus Type 15
[31] = Table I, WI38 cells, 33° C., 3-4 days, NA = Not active, read-out: MIC50 Rhinovirus 1A
[32] = Table I, concentration with change in morphology in 25% of WI38 cells

`Cc1csc(CCCCCCCOc2ccc3oc4ccccc4c3c2)n1` [Compound 15] was tested, and the IC50 [1] was > 25 µg/mL, the EC50 [2] was 5 µg/mL (≈ 13.2 µM) and the EC50 [3, 31] was 10 µg/mL (≈ 26.3 µM). For the same molecule, the IC50 [4] was 10 µg/mL (≈ 26.3 µM), the IC50 [5] was 5 µg/mL (≈ 13.2 µM) and the IC50 [6] was 5 µg/mL (≈ 13.2 µM). The EC50 [7] was < 0.5 µg/mL, the “inhibitory activity against the members of the Entero virus family” value [8] was “remarkable inhibitory activity” and the “All Enterovirus Serotypes (number of serotypes active / tested)” value [8] was 6. The IC50 [9] was 5 µg/mL (≈ 13.2 µM), the IC50 [10] was 1 µg/mL (≈ 2.63 µM) and the IC50 [11] was 25 µg/mL (≈ 65.9 µM). For the same molecule, the EC50 [12] was > 25 µg/mL, the EC50 [13] was 1 µg/mL (≈ 2.63 µM) and the “All Rhinovirus Serotypes (number of serotypes active / tested)” value [14] was 14. For the same molecule, the EC50 [15] was > 25 µg/mL, the Toxicity [16, 32] was 50 µg/mL and the Toxicity ([16]; Table II) was 50 µg/mL. The Toxicity ([16]; Table III) was 50 µg/mL, the EC50 [17] was < 0.5 µg/mL and the IC50 [18] was > 25 µg/mL. For the same molecule, the IC50 [19] was 5 µg/mL (≈ 13.2 µM), the EC50 [20] was 1 µg/mL (≈ 2.63 µM) and the EC50 [21] was 1 µg/mL (≈ 2.63 µM). For the same molecule, the IC50 [22] was 5 µg/mL (≈ 13.2 µM), the EC50 [23] was > 25 µg/mL and the IC50 [24] was 10 µg/mL (≈ 26.3 µM). For the same molecule, the EC50 [25] was 5 µg/mL (≈ 13.2 µM), the EC50 [26] was 5 µg/mL (≈ 13.2 µM) and the EC50 [27] was > 25 µg/mL. For the same molecule, the IC50 [28] was 10 µg/mL (≈ 26.3 µM), the EC50 [29] was > 25 µg/mL and the IC50 [30] was 5 µg/mL (≈ 13.2 µM).

For `Cc1csc(CCCCCCOc2ccc3oc4ccccc4c3c2)n1` [Compound 27], the IC50 [1] was > 25 µg/mL, the EC50 [2] was 10 µg/mL (≈ 27.4 µM) and the EC50 [3, 31] was 10 µg/mL (≈ 27.4 µM). It also gave an IC50 [4] of 5 µg/mL (≈ 13.7 µM), an IC50 [5] of 5 µg/mL (≈ 13.7 µM) and an IC50 [6] of 25 µg/mL (≈ 68.4 µM). For the same molecule, the EC50 [7] was > 25 µg/mL, the “inhibitory activity against the members of the Entero virus family” value [8] was “remarkable inhibitory activity” and the “All Enterovirus Serotypes (number of serotypes active / tested)” value [8] was 3. The IC50 [9] was 10 µg/mL (≈ 27.4 µM), the IC50 [10] was 25 µg/mL (≈ 68.4 µM) and the IC50 [11] was 10 µg/mL (≈ 27.4 µM). For the same molecule, the EC50 [12] was > 25 µg/mL, the EC50 [13] was 10 µg/mL (≈ 27.4 µM) and the “All Rhinovirus Serotypes (number of serotypes active / tested)” value [14] was 17. The EC50 [15] was > 25 µg/mL, the Toxicity [16, 32] was 50 µg/mL and the Toxicity ([16]; Table II) was 50 µg/mL. For the same molecule, the Toxicity ([16]; Table III) was 50 µg/mL, the EC50 [17] was 1 µg/mL (≈ 2.74 µM) and the IC50 [18] was > 25 µg/mL. The IC50 [19] was 10 µg/mL (≈ 27.4 µM), the EC50 [20] was 10 µg/mL (≈ 27.4 µM) and the EC50 [21] was 5 µg/mL (≈ 13.7 µM). For the same molecule, the IC50 [22] was 10 µg/mL (≈ 27.4 µM), the EC50 [23] was 10 µg/mL (≈ 27.4 µM) and the IC50 [24] was > 25 µg/mL. For the same molecule, the EC50 [25] was > 25 µg/mL, the EC50 [26] was 5 µg/mL (≈ 13.7 µM) and the EC50 [27] was 10 µg/mL (≈ 27.4 µM). For the same molecule, the IC50 [28] was > 25 µg/mL, the EC50 [29] was 25 µg/mL (≈ 68.4 µM) and the IC50 [30] was 10 µg/mL (≈ 27.4 µM).

In the case of `Cc1cc(CCCCCCCOc2ccc(C3=NCCO3)cc2)on1` [Disoxaril, reference compound], the IC50 [1] is reported as > 25 µg/mL, the EC50 [2] is reported as 5 µg/mL (≈ 14.6 µM) and the EC50 [3, 31] is reported as 10 µg/mL (≈ 29.2 µM). The EC50 ([3]; Table II, one of seven commonest serotypes, read-out: MIC 50 Rhinovirus Type 1A) was 25 µg/mL (≈ 73 µM), the IC50 [4] was 10 µg/mL (≈ 29.2 µM) and the IC50 [5] was 25 µg/mL (≈ 73 µM). The IC50 [6] was 10 µg/mL (≈ 29.2 µM), the EC50 [7] was < 0.5 µg/mL and the “All Enterovirus Serotypes (number of serotypes active / tested)” value [8] was 7. For the same molecule, the IC50 [9] was 5 µg/mL (≈ 14.6 µM), the IC50 [10] was 0.5 µg/mL (≈ 1.46 µM) and the IC50 [11] was 10 µg/mL (≈ 29.2 µM). For the same molecule, the EC50 [12] was > 25 µg/mL, the EC50 [13] was < 0.5 µg/mL and the “All Rhinovirus Serotypes (number of serotypes active / tested)” value [14] was 17. For the same molecule, the EC50 [15] was > 25 µg/mL, the Toxicity [16, 32] was 50 µg/mL and the Toxicity ([16]; Table II) was 50 µg/mL. For the same molecule, the Toxicity ([16]; Table III) was 50 µg/mL, the EC50 [17] was 0.5 µg/mL (≈ 1.46 µM) and the IC50 [18] was 5 µg/mL (≈ 14.6 µM). The IC50 [19] was < 0.5 µg/mL, the EC50 [20] was 25 µg/mL (≈ 73 µM) and the EC50 [21] was 5 µg/mL (≈ 14.6 µM). The IC50 [22] was 0.5 µg/mL (≈ 1.46 µM), the EC50 [23] was 25 µg/mL (≈ 73 µM) and the IC50 [24] was 5 µg/mL (≈ 14.6 µM). It also gave an EC50 [25] of 5 µg/mL (≈ 14.6 µM), an EC50 [26] of 25 µg/mL (≈ 73 µM) and an EC50 [27] of 10 µg/mL (≈ 29.2 µM). The IC50 [28] was 10 µg/mL (≈ 29.2 µM), the EC50 [29] was 25 µg/mL (≈ 73 µM) and the IC50 [30] was 5 µg/mL (≈ 14.6 µM).
